Test results from US4226610A, “Herbicidal compounds, preparation thereof and herbicides containing the same” (Meiji Selka Kaisha, Ltd., priority 1978, dated 1980).
“Also recorded” adds a separate entry of the source. Where a name gives a salt, the structure may show the parent alone.

Tests used:
white clover = experiment: Experiment 1 foliar application to naturally growing weeds; type: in vivo, Trifolium repens L.; details: 4 months
Excerpt: (§1) The detail of the assessment made in the following Experiments of the invention was as follows:
(§2) Four months after treatment, evaluation was made for inhibition of reproduction expressed in terms of symbols ranging from (-) to (+++) where (-) means no reproduction, namely complete suppression of reproduction, (±) remarkable suppression of reproduction; (+) considerable suppression of reproduction; (++) medium supprestion of reproduction; and (+++) no suppression of reproduction.
(§3) The compounds of the invention and other compounds for comparison listed in Table 3 were diluted to prescribed concentrations and sprayed to naturally growing weeds by foliar application in an amount of 150 liter per 10 are.
(§4) 0.1% of octylphenyl polyoxyethanol was added as a surfactant.
(§5) The killing index (0, no effect, 5, death) after 21 days, and the reproduction-inhibiting effect (-, no reproduction; +++, maximum reproduction) after 2 months (manna grass and cockspar grass) and 4 months (other weeds) were determined.

yamazakura = experiment: Experiment 3 foliar application to naturally growing shrubs; type: in vivo, Prunus donarium Sieb. var. spontanae Makino; details: after 3 months
Excerpt: as §1, §2
(§6) The compounds of the invention and other compounds listed in Table 5. were diluted to prescribed concentrations and sprayed onto naturally growing shrubs by foliar application in an amount of 150 liter per 10 are.
(§7) 0.1% of octylphenyl polyoxyethanol was added as the surfactant. The killing index (0, no effect; 5, death) after 1 month and 3 months, and the reproduction-inhibiting effect (-, no reproduction; +++, maximum reproduction) after 3 months were determined.

eulalia = experiment: Experiment 2 foliar application in Japanese cypress afforested land; type: in vivo, Miscanthus sinensis Andress.; parameters: key: 0 = no effect, 5 = death
Method: as §1
(§8) The compounds of the invention and other compounds listed in Table 4. were diluted to prescribed concentrations and sprayed to shrubs by foliar application in a Japanese cypress afforested land in an amount of 150 liter per 10 are.
(§9) After 30 days and 3 months, the killing index (0, no effect; 5, death) was determined.
(§10) The heights of plants were 50-70 cm. for Japanese cypress, about 50 cm. for chestnut, 50-90 cm. for miyakozasa, about 100 cm. for eulalia and 70-100 cm. for kumaichigo, respectively.

chigaya = experiment: Experiment 1 foliar application to naturally growing weeds; type: in vivo, Imperata cylindrica Beauv.; details: 4 months
Excerpt: as §1, §2, §3, §4, §5

cockspar grass = experiment: as above; type: in vivo, Echinochloa Crusgalli P. Beauv.; details: for Reproduction-inhibiting effect: 2 months; for Killing index of Upperground parts: 21 days
Excerpt: as §1, §2, §3, §4, §5

oak = experiment: Experiment 3 foliar application to naturally growing shrubs; type: in vivo, Quercus serrata Thunb; details: after 3 months
Excerpt: as §1, §2, §6, §7

purple nutsedge = experiment: Experiment 1 foliar application to naturally growing weeds; type: in vivo, Cyperus rotundus L.; details: 4 months
Excerpt: as §1, §2, §3, §4, §5

kiichigo = experiment: Experiment 3 foliar application to naturally growing shrubs; type: in vivo, Rubus palmatsu Thunb. forma coptophyllus Makino; details: after 3 months
Excerpt: as §1, §2, §6, §7

torch azalea = experiment: as above; type: in vivo, Rhododendoron Kaempferi Planch.; details: after 3 months
Excerpt: as §1, §2, §6, §7

azumanezasa = experiment: Experiment 1 foliar application to naturally growing weeds; type: in vivo, Pleioblastus Chino Makino; details: 4 months
Excerpt: as §1, §2, §3, §4, §5

lace shrub = experiment: Experiment 3 foliar application to naturally growing shrubs; type: in vivo, Stephanandra incisa Zabel; details: after 3 months
Excerpt: as §1, §2, §6, §7

hedge bindweed = experiment: Experiment 1 foliar application to naturally growing weeds; type: in vivo, Calystegis hederacea Wall.; details: 4 months
Excerpt: as §1, §2, §3, §4, §5

miyakozasa = experiment: Experiment 2 foliar application in Japanese cypress afforested land; type: in vivo, Sasa nipponica Makino et Shibata; details: 0.25%
Method: as §1, §8, §9, §10

Japanese bush cranberry = experiment: Experiment 3 foliar application to naturally growing shrubs; type: in vivo, Viburnum dilatatum Thunb.; details: for Reproduction-inhibiting: after 3 months
Excerpt: as §1, §2, §6, §7

Japanese prickly ash = experiment: as above; type: in vivo, Xanthoxylum piperitum DC.; details: after 3 months
Excerpt: as §1, §2, §6, §7

warunasubi = experiment: Experiment 1 foliar application to naturally growing weeds; type: in vivo, Solanum carolinensis L.; details: 4 months
Excerpt: as §1, §2, §3, §4, §5

manna grass = experiment: as above; type: in vivo, Digitaria adsceudes Henr.; details: for Reproduction-inhibiting effect: 2 months; for Killing index of Upperground parts: 21 days
Excerpt: as §1, §2, §3, §4, §5

yabugarashi = experiment: as above; type: in vivo, Cayratia japonica Houtt.; details: 4 months
Excerpt: as §1, §2, §3, §4, §5

kumaichigo = experiment: Experiment 2 foliar application in Japanese cypress afforested land; type: in vivo, Rubus crataegifolius Bunge; details: 0.125%; after 3 months
Method: as §1, §8, §9, §10

weeds and shrubs = details: background statement; cited from earlier work

C[C@H](NC(=O)[C@H](C)NC(=O)[C@@H](N)CCP(C)(=O)O)C(=O)O [(L-2-Amino-4-methylphosphinobutyryl)-L-alanyl-L-alanine mono] [(L-2-Amino-4-methylphosphinobutyryl)-L-alanyl-L-alanine monodiethanolammonium salt]
Reproduction-inhibiting effect (white clover; 0.05%): +++
Reproduction-inhibiting effect (white clover; 0.1%): +++
Reproduction-inhibiting effect (white clover; 0.2%): -
Reproduction-inhibiting (yamazakura; 0.05%): +++
Reproduction-inhibiting (yamazakura; 0.1%): ++
Reproduction-inhibiting (yamazakura; 0.2%): -
Killing index (eulalia; 0.25%, after 3 months): 4.5
Killing index (eulalia; 0.25%, after 30 days): 4.5
Reproduction-inhibiting effect (chigaya; 0.05%): +++
Reproduction-inhibiting effect (chigaya; 0.1%): ++
Reproduction-inhibiting effect (chigaya; 0.2%): -
Reproduction-inhibiting effect (cockspar grass; 0.05%): +++
Reproduction-inhibiting effect (cockspar grass; 0.1%): ++
Killing index of Upperground parts (cockspar grass; 0.1%): 3.5
Reproduction-inhibiting effect (cockspar grass; 0.2%): -
Killing index of Upperground parts (cockspar grass; 0.2%): 4.5
Reproduction-inhibiting (oak; 0.05%): +++
Reproduction-inhibiting (oak; 0.1%): ++
Reproduction-inhibiting (oak; 0.2%): -
Reproduction-inhibiting effect (purple nutsedge; 0.05%): +++
Reproduction-inhibiting effect (purple nutsedge; 0.1%): +++
Reproduction-inhibiting effect (purple nutsedge; 0.2%): +
Reproduction-inhibiting (kiichigo; 0.05%): +++
Reproduction-inhibiting (kiichigo; 0.1%): +
Reproduction-inhibiting (kiichigo; 0.2%): -
Reproduction-inhibiting (torch azalea; 0.05%): +++
Reproduction-inhibiting (torch azalea; 0.1%): ++
Reproduction-inhibiting (torch azalea; 0.2%): -
Reproduction-inhibiting effect (azumanezasa; 0.05%): +++
Reproduction-inhibiting effect (azumanezasa; 0.1%): +
Reproduction-inhibiting effect (azumanezasa; 0.2%): -
Reproduction-inhibiting (lace shrub; 0.05%): +++
Reproduction-inhibiting (lace shrub; 0.1%): ++
Reproduction-inhibiting (lace shrub; 0.2%): -
Reproduction-inhibiting effect (hedge bindweed; 0.05%): +++
Reproduction-inhibiting effect (hedge bindweed; 0.1%): +++
Reproduction-inhibiting effect (hedge bindweed; 0.2%): +++
Killing index (miyakozasa; after 3 months): 4.5
Killing index (miyakozasa; after 30 days): 4.5
Reproduction-inhibiting (Japanese bush cranberry; 0.05%): +++
Reproduction-inhibiting (Japanese bush cranberry; 0.1%): +
Reproduction-inhibiting (Japanese bush cranberry; 0.2%): -
Reproduction-inhibiting (Japanese prickly ash; 0.05%): +++
Reproduction-inhibiting (Japanese prickly ash; 0.1%): +
Reproduction-inhibiting (Japanese prickly ash; 0.2%): -
Reproduction-inhibiting effect (warunasubi; 0.05%): +++
Reproduction-inhibiting effect (warunasubi; 0.1%): +++
Reproduction-inhibiting effect (warunasubi; 0.2%): +
Reproduction-inhibiting effect (manna grass; 0.05%): +++
Reproduction-inhibiting effect (manna grass; 0.1%): ++
Killing index of Upperground parts (manna grass; 0.1%): 3.5
Reproduction-inhibiting effect (manna grass; 0.2%): -
Killing index of Upperground parts (manna grass; 0.2%): 4.5
Reproduction-inhibiting effect (yabugarashi; 0.05%): +++
Reproduction-inhibiting effect (yabugarashi; 0.1%): ++
Reproduction-inhibiting effect (yabugarashi; 0.2%): ±

O=C(O)CNCP(=O)(O)O [Glyphosate, N-phosphonomethylglycine]
Reproduction-inhibiting effect (white clover; 0.05%): +++
Reproduction-inhibiting effect (white clover; 0.1%): ++
Reproduction-inhibiting effect (white clover; 0.2%): +
Reproduction-inhibiting (yamazakura; 0.05%): +++
Reproduction-inhibiting (yamazakura; 0.1%): +++
Reproduction-inhibiting (yamazakura; 0.2%): ++
Reproduction-inhibiting effect (chigaya; 0.05%): +++
Reproduction-inhibiting effect (chigaya; 0.1%): ++
Reproduction-inhibiting effect (chigaya; 0.2%): ±
Reproduction-inhibiting effect (cockspar grass; 0.05%): +++
Reproduction-inhibiting effect (cockspar grass; 0.1%): ++
Reproduction-inhibiting effect (cockspar grass; 0.2%): +
Reproduction-inhibiting (oak; 0.05%): +++
Reproduction-inhibiting (oak; 0.1%): +++
Reproduction-inhibiting (oak; 0.2%): +++
Reproduction-inhibiting effect (purple nutsedge; 0.05%): +++
Reproduction-inhibiting effect (purple nutsedge; 0.1%): +++
Reproduction-inhibiting effect (purple nutsedge; 0.2%): +
Killing index (kumaichigo): 0.5
Reproduction-inhibiting (kiichigo; 0.05%): +++
Reproduction-inhibiting (kiichigo; 0.1%): +++
Reproduction-inhibiting (kiichigo; 0.2%): ++
Reproduction-inhibiting (torch azalea; 0.05%): +++
Reproduction-inhibiting (torch azalea; 0.1%): +++
Reproduction-inhibiting (torch azalea; 0.2%): +++
Reproduction-inhibiting effect (azumanezasa; 0.05%): +++
Reproduction-inhibiting effect (azumanezasa; 0.1%): ++
Reproduction-inhibiting effect (azumanezasa; 0.2%): +
Reproduction-inhibiting (lace shrub; 0.05%): +++
Reproduction-inhibiting (lace shrub; 0.1%): +++
Reproduction-inhibiting (lace shrub; 0.2%): +++
Reproduction-inhibiting effect (hedge bindweed; 0.05%): +++
Reproduction-inhibiting effect (hedge bindweed; 0.1%): +++
Reproduction-inhibiting effect (hedge bindweed; 0.2%): +++
Reproduction-inhibiting (Japanese bush cranberry; 0.05%): +++
Reproduction-inhibiting (Japanese bush cranberry; 0.1%): +++
Reproduction-inhibiting (Japanese bush cranberry; 0.2%): ++
Killing index (Japanese bush cranberry; 0.2%, after 30 days): 1.5
Reproduction-inhibiting (Japanese prickly ash; 0.05%): +++
Reproduction-inhibiting (Japanese prickly ash; 0.1%): +++
Reproduction-inhibiting (Japanese prickly ash; 0.2%): +++
Reproduction-inhibiting effect (warunasubi; 0.05%): +++
Reproduction-inhibiting effect (warunasubi; 0.1%): +++
Reproduction-inhibiting effect (warunasubi; 0.2%): +
weeding effects of known herbicides in words (weeds and shrubs): not so effective for broad-leaved weeds; also recorded: poor weeding effects for broadleaved weeds and shrubs
Reproduction-inhibiting effect (manna grass; 0.05%): +++
Reproduction-inhibiting effect (manna grass; 0.1%): ++
Reproduction-inhibiting effect (manna grass; 0.2%): +
Reproduction-inhibiting effect (yabugarashi; 0.05%): +++
Reproduction-inhibiting effect (yabugarashi; 0.1%): +++
Reproduction-inhibiting effect (yabugarashi; 0.2%): ++

O=C([O-])C(F)(F)C(F)F.[Na+] [sodium 2,2,3,3-tetrafluoropropionate]
Reproduction-inhibiting (yamazakura; 0.1%): +++
Reproduction-inhibiting (yamazakura; 0.2%): +++
Reproduction-inhibiting (yamazakura; 0.4%): +++
Killing index (eulalia; 0.5%, after 30 days): 4.5
Reproduction-inhibiting (oak; 0.1%): +++
Reproduction-inhibiting (oak; 0.2%): +++
Reproduction-inhibiting (oak; 0.4%): +++
Reproduction-inhibiting (kiichigo; 0.1%): +++
Reproduction-inhibiting (kiichigo; 0.2%): +++
Reproduction-inhibiting (kiichigo; 0.4%): +++
Reproduction-inhibiting (torch azalea; 0.1%): +++
Reproduction-inhibiting (torch azalea; 0.2%): +++
Reproduction-inhibiting (torch azalea; 0.4%): +++
Reproduction-inhibiting (lace shrub; 0.1%): +++
Reproduction-inhibiting (lace shrub; 0.2%): +++
Reproduction-inhibiting (lace shrub; 0.4%): +++
Reproduction-inhibiting (Japanese bush cranberry; 0.1%): +++
Reproduction-inhibiting (Japanese bush cranberry; 0.2%): +++
Reproduction-inhibiting (Japanese bush cranberry; 0.4%): +++
Reproduction-inhibiting (Japanese prickly ash; 0.1%): +++
Reproduction-inhibiting (Japanese prickly ash; 0.2%): +++
Reproduction-inhibiting (Japanese prickly ash; 0.4%): +++
weeding effects of known herbicides in words (weeds and shrubs): effective for eulalia and bamboo grass; also recorded: not so effective for shrubs
